This is an account of results in article PMC9260921, “Design and Synthesis of Carbothioamide/Carboxamide-Based Pyrazoline Analogs as Potential Anticancer Agents: Apoptosis, Molecular Docking, ADME Assay, and DNA Binding Studies” (ACS Omega, 2022).

≈ marks a conversion by molar mass, not a printed value.

The IC50 is the midpoint of a concentration-inhibition curve.

The test system of test [1] is human lung cancer cell (A549). The experiment in a line: MTT cytotoxicity assay, A549. Format: cell-based. Particulars: for IC50: Homo sapiens, MTT, 24 h treatment, A549; for Selectivity Index A549: HFL-1 vs A549. Here is the method: (§1) The American type culture collection (ATCC, USA) provided human lung cancer cell line (A549), cervical cancer cell line (HeLa), and human primary normal lung cells (HFL-1) for this investigation. In a water-jacketed cell culture incubator, all of these cell types were cultured according to conventional culture conditions at 37 °C with 5% CO2. These cells were cultured in appropriate cell culture media. A549 cells were grown in DMEM media with 2 mM glutamine, HeLa cells were grown in Eagle’s minimum essential medium (EMEM) as recommended, whereas HFL-1 cells were also grown in F-12K. Fetal bovine serum 10% (FBS) was added to the entire medium. At a rate of 8000 cells were seeded in triplicate in a single 96-well plate for the MTT technique of cell death investigation. […] After the treatment period was finished, the media was removed, and each well was gently washed three times with PBS to clear any remaining residue just before the experiment. […] The plates were incubated at 37 °C for 4 h after the MTT was added. We used DMSO to remove crystals after the incubation period was completed. A hybrid multi-mode plate reader (BioTek, USA) with a microplate reader was used to measure absorbance at 570 nm. The percentage inhibition was calculated using eq 1: [drawing 1] 1 where ODtreated is the mean optical density (OD) of the treated cells and ODcontrol is the OD of the vehicle control cells (negative control).
(§2) With all of the experimental drugs, we conducted the MTT assay three times. Prism8 software (GraphPad) was used to determine the IC50 values of the various drugs, which were then expressed as a drug concentration (μM).

Test [2] relates to human cervical cancer cell (HeLa). The experiment in a line: MTT cytotoxicity assay, HeLa. Particulars: for Selectivity Index HeLa: HFL-1 vs HeLa; for IC50: Homo sapiens, MTT, 24 h treatment, HeLa. Format: cell-based. Here is the method: as §1, §2
Test [3] concerns human primary normal lung cells (HFL-1). The experiment in a line: MTT cytotoxicity assay, HFL-1. The class given is cell-based. To be noted: HFL1, 24 h treatment. How it is done:
as §1, §2
(Tetrazolium assays rely on reduction of a dye to a coloured formazan, in cell work by metabolically active cells.)

For a further test, the system named is HeLa. The arrangement: method as in PMID 27159418. To be noted: cited from earlier work.
Another test has as its system A549 cells. In words: Annexin V-FITC/PI flow cytometry apoptosis assay. Format: cell-based, human. Particulars: 4 μM, 24 h, control 11.41%. Here is the method: We used flow cytometry analysis on A549 and HeLa cells for the quantitative apoptosis assay. As previously stated, cells were cultivated at 1.0 × 10^5 cells/ml and plated in 24-well culture plates (Corning) for 24 h. Cells were cultured for further 24 h after being treated with 4 μm of target drugs 3a and 3h. For analysis, the medium was discarded and cells were washed briefly in PBS, and then, the trypsinization protocol was carried out. Furthermore, cells were suspended in PBS and stained with annexin in V-FITC/PI according to the supplier technique (Sigma, USA, catalogue number: APOAF-20TST). After adding the reagents, the cells were allowed to incubate for 30 min at room temperature before being analyzed in PBS. The analysis was conducted on a BD FACS Accuri (BD Biosciences, USA), and the results were analyzed using FlowJo software (BD Biosciences, USA).[42]
Background: A flow cytometer gives signals particle by particle.

Test [4] has as its system Ct-DNA. In words: Fluorescence emission titration. The class given is binding. To be noted: DNA 10 μM, compound 10–80 μM. Here is the method:
Drug interactions with Ct-DNA have been studied using fluorescence assays. The experiments were achieved by varying drug concentration from 10 to 80 μM while keeping the concentration of DNA (10 μM) constant. Before making emission observation, the synthesized compound was incubated for 3 min with mixing DNA, after which emission titration was collected in Tris-buffer (pH 7.4) excitation at wavelength 260 nm, and the quenching results were analyzed using the Stern–Volmer equation (eq 3): [drawing 3] 3 Slit width has been kept constant at 10 nm during emission and excitation. The titration experiments were repeated three times (n = 3) to ensure consistent results.[50]−[52]

Another test concerns EB-DNA complex (Ct-DNA). In words: Ethidium bromide dye displacement assay. The class given is binding. Particulars: quenching of EB-DNA fluorescence. The source says:
Competitive fluorescence binding experiments utilizing ethidium bromide, a standard intercalation indicator, were used to evaluate the degree of molecular binding interaction mechanism of an active drug with Ct-DNA. […] The observable changes in the EB–DNA adduct’s emission spectrum as a function of quencher addition are particularly valuable for researching compound–DNA interactions. Fluorescence measurements were done in Tris-buffer at a 515 nm excitation wavelength in the range of 530–700 nm. Slit widths for both emission and excitation were set at about 10 nm.[54],[69]

The subject of test [5] is Ct-DNA. The experiment in a line: Cyclic voltammetry. The class given is binding. To be noted: Tris-buffer, 100 mV s^–1, DNA 10–40 μM. Here is the method: Using this experiment, a drug–DNA binding interaction has also been investigated. The solution’s pH was maintained before analysis, and the entire analytical equipment was built at 25 °C with a constant potential of 100 mV s^–1 scan rate and a voltage range of −1 to +1 V. The spectra of a test compound (60 μL) were recorded using a screen-printed electrode (SPE). These experiments were carried out in a 1:1 ferri/ferrocyanide solution ratio. Various concentrations of Ct-DNA (Tris-buffer) were used to further evaluate test compounds 3a and 3h. The working electrode is made of the test compound, whereas the counter and reference electrodes are made of gold-coated copper. Binding constants were obtained using eq 4: [drawing 4] 4 where I0 and I are the peak currents of compound and compound–DNA complexes, respectively.[56]

A short description of test [6]: DPPH radical scavenging antioxidant assay. To be noted: 1 h incubation in the dark. Here is the method:
The antioxidant activity of the 3a and 3h was determined using the DPPH ([…]) radical scavenging technique, as reported.[60],[73] In methanol, the DPPH radical has a purple color and has a strong absorption band with a maximum of 517 nm. Compound concentrations ranging from 1 to 4 μM were mixed with DPPH at a concentration of 10 μM. The mixtures were properly mixed and then incubated at room temperature for 1 h in the dark. The standard reference was ascorbic acid. As a control, DPPH in methanol was utilized. The % of DPPH radical scavenged was used to calculate the antioxidant activity of the compounds, which was calculated using eq 5: [drawing 5] 5 where Acontrol = DPPH absorbance; Asample = sample with DPPH absorbance.
(In general: DPPH is a stable violet radical that fades when it is reduced.)

The test system of test [7] is breast cancer cell line (MCF-7). Set-up: method as in PMID 20627597. Particulars: cited from earlier work.

On to `Cc1ccc(C2=NN(C(N)=S)C(c3ccc(N(C)C)cc3)C2)cc1` (stereo not drawn) [Compound 3e], for which the concentration for half-maximal inhibition (IC50) came to 37.07 ± 0.14 µM in [1], 14.1 ± 0.4 µM in test [2] and 244.64 ± 0.05 µM in test [3]. Besides, in [2], the “Selectivity Index HeLa” value is reported as 17.4.

Take `COc1cccc(C2=NN(C(N)=O)C(c3cn(C)c4ccc(Br)cc34)C2)c1` (stereo not drawn) [Compound 3]: in the test on HeLa, the half-inhibitory concentration (IC50) was 0.25 µM.

On to `CCN(CC)c1ccc(C2CC(c3ccc(Br)cc3)=NN2C(N)=S)cc1` (stereo not drawn) [Compound 3l], for which, in test [1], the “Selectivity Index A549” value is recorded as 4.2 and the IC50 is 43.93 ± 0.13 µM. In [2], the “Selectivity Index HeLa” value came out at 10.5 and 17.7 ± 0.42 µM corresponded to half-maximal inhibition (IC50). Moreover, the IC50 in test [3] amounted to 185.45 ± 0.14 µM.

In the case of `CN(C)c1ccc(C2CC(c3cccc4ccccc34)=NN2C(N)=O)cc1` (stereo not drawn) [Compound 3k], in [1], the “Selectivity Index A549” value is 0.5 and half-maximal inhibition (IC50) required 52.76 ± 0.28 µM. Also, in test [2], the “Selectivity Index HeLa” value came to 0.2 and half-maximal inhibition (IC50) was put at 96.46 ± 0.25 µM. For the same molecule, the IC50 in test [3] stood at 27.52 ± 0.06 µM.

With `CN(C)c1ccc(C2CC(c3cccc4ccccc34)=NN2C(N)=S)cc1` (stereo not drawn) [Compound 3j], in test [1], the “Selectivity Index A549” value came to 0.5 and the IC50 is 290.09 ± 0.14 µM. For the same molecule, in test [2], the “Selectivity Index HeLa” value came out at 0.8 and the IC50 was determined as 194.2 ± 0.44 µM. Besides, in [3], it took 166.75 ± 0.03 µM to reach half-maximal inhibition (IC50).

With `CN(C)c1ccc(C2CC(c3ccc([N+](=O)[O-])cc3)=NN2C(N)=O)cc1` (stereo not drawn) [Compound 3i], the “Selectivity Index A549” value in test [1] was found to be 0.9. The IC50 was 174.84 ± 0.05 µM in test [1], 80.7 ± 0.28 µM in test [2] and 165.84 ± 0.03 µM in [3]. For the same molecule, the “Selectivity Index HeLa” value in test [2] came to 2.0.

As for `CN(C)c1ccc(C2CC(c3cccc(Br)c3)=NN2C(N)=S)cc1` (stereo not drawn) [Compound 3b], the “Selectivity Index A549” value in test [1] is given as 1.0. Further, the IC50 worked out at 222.3 ± 0.09 µM in test [1], 150.1 ± 0.24 µM in test [2] and 227.98 ± 0.04 µM in test [3]. Further, the “Selectivity Index HeLa” value in [2] was found to be 1.5.

As for `CN(C)c1ccc(C2CC(c3cccc(Br)c3)=NN2C(N)=O)cc1` (stereo not drawn) [Compound 3h], in test [1], the “Selectivity Index A549” value is 7.6 and the half-maximal inhibitory concentration (IC50) amounted to 22.5 ± 0.25 µM. Besides, in [2], the “Selectivity Index HeLa” value turned out to be 7.1 and the IC50 was found to be 24.1 ± 0.86 µM. Also, the midpoint of inhibition in test [3], the IC50, lay at 173 ± 10 µM. The “cell death (sum of Q1+Q2+Q3)” value in the test with A549 cells turned out to be 20.60%. Further, in the test with Ct-DNA [4], the “Stern–Volmer constant KSV (emission titration)” value is on record as 4.28 × 10^3 M^–1. Besides, the “Stern–Volmer constant KSV (EtBr displacement)” value in the test with EB-DNA complex (Ct-DNA) is 1.69 × 10^4 M^–1. Moreover, the “binding constant K (cyclic voltammetry)” value in the test on Ct-DNA [5] is recorded as 7.1 × 10^3. For the same molecule, the “IC50 DPPH radical scavenging” value in [6] was found to be 0.215 ± 0.025 µg/mL (≈ 0.555 µM).

With `COc1ccc(C2CC(c3ccc(C)c(C)c3)=NN2C(N)=S)cc1` (stereo not drawn) [Compound 1], the 50% inhibitory concentration (IC50) in [7] was 0.08 µM.

As for `CN(C)c1ccc(C2CC(c3ccc(Cl)cc3)=NN2C(N)=O)cc1` (stereo not drawn) [Compound 3g], in test [1], the “Selectivity Index A549” value is given as 0.4 and the IC50 amounted to 59.74 ± 0.18 µM. In [2], the “Selectivity Index HeLa” value turned out to be 0.03 and the IC50 stood at 890.3 ± 0.22 µM. Further, the midpoint of inhibition in test [3], the IC50, lay at 26.94 ± 0.08 µM.

Consider `CN(C)c1ccc(C2CC(c3ccccc3Cl)=NN2C(N)=S)cc1` (stereo not drawn) [Compound 3d], for which the “Selectivity Index A549” value in test [1] was found to be 1.8. The results for the IC50 in test [1], in test [2] and in test [3] were 118.7 ± 0.08 µM, 15 ± 0.46 µM and 217.03 ± 0.02 µM, respectively. Also, the “Selectivity Index HeLa” value in test [2] was 14.46.

In the case of `COc1cc(C2=NN(C(N)=O)C(c3cn(C)c4ccc(Br)cc34)C2)cc(OC)c1OC` (stereo not drawn) [Compound 2], the IC50 with HeLa is 0.21 µM.

Consider `CN(C)c1ccc(C2CC(c3ccc(Br)cc3)=NN2C(N)=S)cc1` (stereo not drawn) [Compound 3f], for which the “Selectivity Index A549” value in test [1] is given as 2.0. For the same molecule, the concentration for half-maximal inhibition (IC50) came to 94.18 ± 0.11 µM in test [1], 168.8 ± 0.36 µM in [2] and 194.33 ± 0.01 µM in test [3]. Besides, the “Selectivity Index HeLa” value in [2] turned out to be 1.1.

As for `CN(C)c1ccc(C2CC(c3ccc(Cl)cc3)=NN2C(N)=S)cc1` (stereo not drawn) [Compound 3a], in [1], the “Selectivity Index A549” value was 8.4 and it took 13.5 ± 0.17 µM to reach half-maximal inhibition (IC50). Also, in test [2], the “Selectivity Index HeLa” value worked out at 6.5 and the IC50 was 17.52 ± 0.09 µM. This molecule also gave a half-inhibitory concentration (IC50) in test [3] of 114.5 ± 0.01 µM. Further, in the test on A549 cells, the “cell death (sum of Q1+Q2+Q3)” value is on record as 25.86%. For the same molecule, the “Stern–Volmer constant KSV (emission titration)” value in the test on Ct-DNA [4] was 5.80 × 10^3 M^–1. Besides, the “Stern–Volmer constant KSV (EtBr displacement)” value in the test with EB-DNA complex (Ct-DNA) is 1.84 × 10^4 M^–1. Also, the “binding constant K (cyclic voltammetry)” value with Ct-DNA [5] is listed as 1.25 × 10^4. For the same molecule, the “IC50 DPPH radical scavenging” value in test [6] is 0.132 ± 0.012 µg/mL (≈ 0.368 µM).

As for `CN(C)c1ccc(C2CC(c3cccc([N+](=O)[O-])c3)=NN2C(N)=S)cc1` (stereo not drawn) [Compound 3c], in [1], the “Selectivity Index A549” value was 1.1 and the IC50 came out at 163.9 ± 0.07 µM. Further, in test [2], the “Selectivity Index HeLa” value amounted to 1.4 and half-maximal inhibition (IC50) was put at 123.6 ± 0.2 µM. The IC50 in [3] was 185.3 ± 0.21 µM.
